Data on 23 compounds can be found in patent publication US20060063784A1, “Method of using substituted pyrazolo [1,5-a] pyrimidines” (priority 2004, published 2006).

Structures are written as SMILES. Read-outs that look alike come from different tables or passages of the source.

The subject of one assay is LoVo Colon cell line. Briefly: Cytotoxicity assay using LoVo colon cell line, SRB. In kind it is cell-based. The settings on record: Homo sapiens, 96 h, 4 days incubation, SRB, read-out: Inhibition of LoVo. In short, it runs like this:
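Growth inhibition read by sulforhodamine B after 4-day compound exposure at 37 °C. Colon LoVo cells plated at 4000 per well in RPMI/10% FBS a day earlier; doses ranged 5 pM-20 μM or 170 pg/ml-10 μg/ml. IC50 is the concentration halving proliferation versus untreated wells.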

Assay [1] relates to 80S14 (p21-deficient) cells. Briefly: Cytotoxicity assay using isogenic cell lines: IC50 in 80S14 (p21-deficient) cells, SRB. The format is cell-based, human. To be noted: Homo sapiens, 120 h, SRB. The method, boiled down: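 IC50 is the concentration halving proliferation relative to untreated controls, read from SRB absorbance (560 nm) after TCA fixation. Test agent dilutions (5 pM–50 μM or 170 pg/ml–10 μg/ml) were left on p21-deficient 80S14 cells (12,000/well, pre-incubated overnight) for 5 days at 37 °C.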

[2] abbreviates: 80S14 (p21-deficient) cells, 5 days, class symbols, read-out: IC50 for 80S14.
[3] abbreviates: 80S14 p21-deficient cells, 5 days incubation, read-out: IC50 for 80SI4.

With `CCN(CC)Cc1ccc(-c2cccc(-c3ccnc4c(C(=O)c5cccs5)cnn34)c2)cc1` [Example 462, (7-{4′-[(Diethylamino)methyl]-1,1′-biphenyl-3-yl}pyrazolo[1,5-a]pyrimidin-3-yl)(thien-2-yl)methanone], the IC50 lay in the range of 100 to 1000 nM in the assay on LoVo Colon cell line (Cellular activity in LoVo cell) and 1000 to 10000 nM in assay [1] (setting [2]).
As for `Cc1cc(C)cc(-c2cnn3c(-c4cccc(-c5nnn(Cc6ccccn6)n5)c4)ccnc23)c1` [Example 495, 3-(3,5-Dimethylphenyl)-7-{3-[2-(pyridin-2-ylmethyl)-2H-tetrazol-5-yl]phenyl}pyrazolo[1,5-a]pyrimidine], the IC50 in the assay on LoVo Colon cell line (Cellular activity in LoVo cell) lay in the range of 100 to 1000 nM; in assay [1] (setting [2]) it was 10000 to 50000 nM.
Turning to `O=C(CC1CC1)Nc1cccc(-c2ccnc3c(C(=O)c4cccs4)cnn23)c1` [Example 72, 2-cyclopropyl-N-{3-[3-(thien-2-ylcarbonyl)pyrazolo[1,5-a]pyrimidin-7-yl]phenyl}acetamide], the figures for the IC50 (in the assay with LoVo Colon cell line (LoVo colon cells); in assay [1] (setting [3])) were 100 to 1000 nM and under 1000 nM, respectively.
As to `O=C(Nc1cccc(-c2ccnc3c(C(=O)c4cccs4)cnn23)c1)NC1CC1` [Example 169, N-cyclopropyl-N′-{3-[3-(thien-2-ylcarbonyl)pyrazolo[1,5-a]pyrimidin-7-yl]phenyl}urea], the values for the IC50 (in the assay on LoVo Colon cell line (LoVo colon cells); in assay [1] (setting [3])) were 100 to 1000 nM and 1000 to 10000 nM, respectively.
Take `COc1ccc(-c2cnn3c(-c4cccc(NC(=O)CC(C)C)c4)ccnc23)cc1C=O` [Example 484, N-{3-[3-(3-Formyl-4-methoxyphenyl)pyrazolo[1,5-a]pyrimidin-7-yl]phenyl}-3-methylbutanamide]: the IC50 fell in the range of 1000 to 20000 nM in the assay with LoVo Colon cell line (Cellular activity in LoVo cell) and 1000 to 10000 nM in assay [1] (setting [2]).
On to `CSCCOC(=O)Nc1cccc(-c2ccnc3c(C(=O)c4cccs4)cnn23)c1` [Example 178, 2-(methylthio)ethyl 3-[3-(thien-2-ylcarbonyl)pyrazolo[1,5-a]pyrimidin-7-yl]phenylcarbamate], for which the IC50 with LoVo Colon cell line (LoVo colon cells) was under 100 nM; in assay [1] (setting [3]), under 1000 nM.
For `Nc1cc(-c2ccnc3c(C(=O)c4cccs4)cnn23)cs1` [Example 331, [7-(5-Aminothien-3-yl)pyrazolo[1,5-a]pyrimidin-3-yl](thien-2-yl)methanone], the IC50 fell in the range of 1000 to 20000 nM with LoVo Colon cell line (Cellular activity in LoVo cell) and 1000 to 10000 nM in assay [1] (setting [2]).
As for `O=C(Nc1cc(-c2ccnc3c(C(=O)c4cccs4)cnn23)ccc1F)c1c(F)cccc1F` [Example 374, 2,6-Difluoro-N-{2-fluoro-5-[3-(thien-2-ylcarbonyl)pyrazolo[1,5-a]pyrimidin-7-yl]phenyl}benzamide], the IC50 with LoVo Colon cell line (Cellular activity in LoVo cell) was under 100 nM; in assay [1] (setting [2]), under 1000 nM.
For `O=C(CCc1ccncc1)Nc1cccc(-c2ccnc3c(C(=O)c4cccs4)cnn23)c1` [Example 440, 3-Pyridin-4-yl-N-{3-[3-(thien-2-ylcarbonyl)pyrazolo[1,5-a]pyrimidin-7-yl]phenyl}propanamide], the IC50 in the assay on LoVo Colon cell line (Cellular activity in LoVo cell) was in the range of 100 to 1000 nM; in assay [1] (setting [2]), 1000 to 10000 nM.
For the compound `O=C(c1cccs1)c1cnn2c(-c3cccc(NCc4ccccc4Cl)c3)ccnc12` [Example 368, (7-{3-[(2-Chlorobenzyl)amino]phenyl}pyrazolo[1,5-a]pyrimidin-3-yl)(thien-2-yl)methanone], the IC50 in the assay with LoVo Colon cell line (Cellular activity in LoVo cell) lay within 100 to 1000 nM; in assay [1] (setting [2]), 1000 to 10000 nM.
On to `O=C(Cc1cccnc1)Nc1cccc(-c2ccnc3c(C(=O)c4cccs4)cnn23)c1` [Example 439, 2-Pyridin-3-yl-N-{3-[3-(thien-2-ylcarbonyl)pyrazolo[1,5-a]pyrimidin-7-yl]phenyl}acetamide], for which the IC50 in the assay with LoVo Colon cell line (Cellular activity in LoVo cell) was under 100 nM; in assay [1] (setting [2]), 1000 to 10000 nM.
Regarding `Cc1ccc(-c2ccnc3c(C(=O)c4cccs4)cnn23)cc1NC(=O)NC(C)C` [Example 311, N-Isopropyl-N′-{2-methyl-5-[3-(2-thienylcarbonyl)pyrazolo[1,5-a]pyrimidin-7-yl]phenyl}urea], the IC50 is under 100 nM in the assay on LoVo Colon cell line (Cellular activity in LoVo cell) and under 1000 nM in assay [1] (setting [2]).
On to `O=C(c1cccs1)c1cnn2c(-c3cccc(-c4nnn(CCN5CCCCC5)n4)c3)ccnc12` [Example 512, (7-{3-[2-(2-Piperidin-1-ylethyl)-2H-tetraazol-5-yl]phenyl}pyrazolo[1,5-a]pyrimidin-3-yl)(thien-2-yl)methanone], for which the IC50 in the assay on LoVo Colon cell line (Cellular activity in LoVo cell) lay within 100 to 1000 nM; in assay [1] (setting [2]) it was 1000 to 10000 nM.
Turning to `CC(C)(C)CCNc1cccc(-c2ccnc3c(C(=O)c4cccs4)cnn23)c1` [Example 372, (7-{3-[(3,3-Dimethylbutyl)amino]phenyl}pyrazolo[1,5-a]pyrimidin-3-yl)(thien-2-yl)methanone], the values for the IC50 (in the assay on LoVo Colon cell line (Cellular activity in LoVo cell); in assay [1] (setting [2])) were under 100 nM and under 1000 nM, respectively.
Take `Cc1cc(-c2cccc(NC(=O)CC(C)C)c2)n2ncc(C(=O)c3cccs3)c2n1` [Example 201, 3-methyl-N-{3-[5-methyl-3-(thien-2-ylcarbonyl)pyrazolo[1,5-a]pyrimidin-7-yl]phenyl}butanamide]: the IC50 in the assay on LoVo Colon cell line (LoVo colon cells) was under 100 nM; in assay [1] (setting [3]), under 1000 nM.
For `CCN(CC)c1cccc(-c2ccnc3c(C(=O)c4cccs4)cnn23)c1` [Example 394, {7-[3-(Diethylamino)phenyl]pyrazolo[1,5-a]pyrimidin-3-yl}(thien-2-yl)methanone], the IC50 was 100 to 1000 nM with LoVo Colon cell line (Cellular activity in LoVo cell) and 1000 to 10000 nM in assay [1] (setting [2]).
The corresponding values for `O=C(Nc1cccc(-c2ccnc3c(C(=O)c4cccs4)cnn23)c1)OCc1ccccn1` [Example 429, Pyridin-2-ylmethyl 3-[3-(thien-2-ylcarbonyl)pyrazolo[1,5-a]pyrimidin-7-yl]phenylcarbamate] are 100 to 1000 nM and 1000 to 10000 nM.
Consider `CC(C)CC(=O)Nc1cncc(-c2ccnc3c(C(=O)c4cccs4)cnn23)c1` [Example 324, 3-Methyl-N-{5-[3-(2-thienylcarbonyl)pyrazolo[1,5-a]pyrimidin-7-yl]-3-pyridinyl}butanamide], for which the IC50 in the assay on LoVo Colon cell line (Cellular activity in LoVo cell) was 100 to 1000 nM; in assay [1] (setting [2]), 1000 to 10000 nM.
As to `O=C(c1cccs1)c1cnn2c(-c3cccc(NCc4cccc(Cl)c4)c3)ccnc12` [Example 365, (7-{3-[(3-Chlorobenzyl)amino]phenyl}pyrazolo[1,5-a]pyrimidin-3-yl)(thien-2-yl)methanone], the IC50 in the assay on LoVo Colon cell line (Cellular activity in LoVo cell) fell in the range of 1000 to 20000 nM; in assay [1] (setting [2]) it was 10000 to 50000 nM.
Turning to `CCCOC(=O)Nc1cccc(-c2c(C)cnc3c(C(=O)c4cccs4)cnn23)c1` [Example 208, propyl 3-[6-methyl-3-(thien-2-ylcarbonyl)pyrazolo[1,5-a]pyrimidin-7-yl]phenylcarbamate], the IC50 fell in the range of 100 to 1000 nM in the assay with LoVo Colon cell line (LoVo colon cells) and 10000 to 50000 nM in assay [1] (setting [3]).
`Cc1cnc2c(C(=O)c3cccs3)cnn2c1-c1cccc(NC(=O)OC(C)C)c1` [Example 211, isopropyl 3-[6-methyl-3-(thien-2-ylcarbonyl)pyrazolo[1,5-a]pyrimidin-7-yl]phenylcarbamate]: the IC50 with LoVo Colon cell line (LoVo colon cells) lay within 1000 to 2000 nM; in assay [1] (setting [3]), 10000 to 50000 nM.
With `CCCNc1cccc(-c2ccnc3c(C(=O)c4cccs4)cnn23)c1` [Example 267, [7-[3-(Propylamino)phenyl]pyrazolo[1,5-a]pyrimidin-3-yl]-2-thienyl-methanone], the IC50 in the assay with LoVo Colon cell line (Cellular activity in LoVo cell) was in the range of 100 to 1000 nM; in assay [1] (setting [2]), 1000 to 10000 nM.
On to `Cc1cc(-c2cccc(NC(=O)c3ccccc3)c2)n2ncc(C(=O)c3cccs3)c2n1` [Example 202, N-{3-[5-methyl-3-(thien-2-ylcarbonyl)pyrazolo[1,5-a]pyrimidin-7-yl]phenyl}benzamide], for which the IC50 lay within 100 to 1000 nM in the assay with LoVo Colon cell line (LoVo colon cells) and 10000 to 50000 nM in assay [1] (setting [3]).
